Experimental data reported in patent publication US10988766B2, “Compositions and methods used in diagnosing and treating colorectal cancer” (Oregon Health & Science University, priority 2017, dated 2021).

Tests used:
Type in all cases: cell-based, human
[1] = tested on: HCT-116 cells reverse transfected with anti-miR-451a; assay: Chemosensitivity model: cell proliferation (CellTiter-Glo) with SHP2 and RAF inhibitors; settings: 3.5 uM SHP2-inhibitor, 20 uM RAF-inhibitor, alone or combined; treated 24 hours post transfection
Experimental: HCT-116 cells (American Type Culture Collection) were cultured in McCoy's media supplemented with 10% fetal bovine serum (FBS) and antibiotics. Cells were tested and found negative for mycoplasma contamination before use in the assays described. Cells were reverse transfected with miR-451a-5p mimics or inhibitors with their respective controls (purchased from Life Technologies), using Lipofectamine® RNAiMAX (Invitrogen) per manufacturer's instructions. We report highly efficient transfection (>90%) of mimics and inhibitors in cell culture, as measured by fluorescent miR control. Cells were irradiated in a Shepherd^137 cesium irradiator at a rate of 1.34 cGy min. HCT-116 cells were initially transfected in a six-well plate, then transferred to a 96-well plate 16 hours post-transfection (2000 cells/well). In the chemosensitivity model, HCT-116 cells were treated with SHP2 inhibitor SHP099, 6-([…]-4-methyl-1-piperidinyl)-3-(2,3-dichlorophenyl)-2-pyrazinamine (Cayman Chemical, cat#20000) (3.5 μM), and RAF inhibitor (selective paradox breaker; SelleckChem, PLX7904, N′-[3-[[5-(2-cyclopropyl-5-pyrimidinyl)-1H-pyrrolo[2,3-b]pyridin-3-yl]carbonyl]-2,4-difluorophenyl]-N-ethyl-N-methyl-sulfamide, cat#57964) (20 μM) at 24 hours post transfection. Cell proliferation was analyzed at 48 hours post irradiation, using CellTiter-Glo®, per the manufacturer's instructions.

HCT-116 cells [2] = assay: Proliferation in 2D culture (Cell Titer-Glo) after transfection and radiation
Source text: HCT-116 cells were reverse transfected with miR-451a-5p mimics, inhibitors and their respective controls were purchased from Life Technologies using Lipofectamine RNAiMAX (Invitrogen) according to manufacturer's instructions.
Cells or mice were irradiated on a Shepherd^137 cesium irradiator at a rate of […] 1.34 cGy min. In tumour-targeted radiation experiments, mice were restrained in a lead shield (Brain Tree Scientific) to minimize exposure to the non-tumour areas.
(§1) HCT-116 cells were transfected in a 6 well plate with miR-451a-5p mimic or inhibitor, and the corresponding controls from Life Technologies as previously described. Cells were transferred to a 96 well plate 16 hours post-transfection (1000 cells/well). At 24 hours post-transfection the HCT-116 cells were irradiated with 0, 2, or 5 Gy. Cell Titer-Glo and Caspase 3/7 Glo were analyzed at 48 hours and 96 hours post-irradiation, according to manufacturer's instructions.

HCT-116 cells [3] = assay: Tumorsphere (3D culture) proliferation assay after transfection and radiation; settings: miR-451a mimic vs control mimic, 48 hours after radiation
Experimental: (§2) FIG. 2B is a graph showing results where HCT116 were transfected with a miR-451a mimic or a control mimic. Proliferation was analyzed 48 hours after radiation in 3D cultures with the indicated doses. Bars depict mean±s.e.m. of triplicate wells. ** indicates P<0.01 on a two-tailed Student's T-test.
as §2, with “3B” for “2B”, “inhibitor (anti-miR-451a)” for “mimic”, “anti-miR.” for “mimic.”, “culture” for “cultures”
as §1

HCT-116 cells [4] = assay: Colony formation assay (surviving fraction); settings: miR-451a mimic vs control mimic, 0, 2 or 5 Gy, colonies counted 12-14 days after plating
Experimental: Cells were transfected with miR-451a-5p mimic or control mimic for 16 hours. Then cells were plated (100 or 200 cells for 0Gy, 200 or 400 cells/well for 2GY and 400 or 800 cells per well for 5Gy) in triplicate in a 6-well plate. Cells were irradiated 4 hours after plating, 0Gy, 2Gy or 5Gy. Two weeks after plating, cells were fixed and stained with crystal violet and colonies were counted. Surviving fraction was calculated based on the colony numbers normalized to the plating efficiency.

[5] = tested on: CAB39, EMSY, EREG, and MEX3C mRNAs; assay: miR-TRAP / RISC Trap assay; settings: HCT116 co-transfected with mutant RISC complex plasmid and miR-451a mimic or control mimic
Source text: Fold enrichment over pre-IP mRNAs is depicted. Results are representative of two independent experiments.
HCT116 cells were co-transfected with a plasmid coding for a flag-tagged dominant negative […] mutant (Clontech kit #632016) along with a control mimic or miR-451a-5p mimic according to manufacturer instructions. Twenty-four hours later the RNA protein complexes were crosslinked and the RISC complex was immunoprecipitated using an anti-FLAG antibody and RNA was isolated for quantitative real-time PCR of target genes. The fold enrichment was calculated using pre and post IP controls as well as normalization to the control mimic pull-downs.

[6] = tested on: CAB39, EMSY, EREG, and MEX3C mRNA in HCT-116 cells; assay: qRT-PCR of the miR-451 targets after transfection; settings: 24 h after transfection
Experimental: FIG. 4C is a plot of the results of qRT-PCR of the miR-451 targets in HCT-116 cells at 24 h after transfection.
This list was narrowed by filtering genes with a known role in human colorectal cancer and/or cellular response to ionizing radiation. […] A miR-Trap assay was used to pull down mRNAs enriched at the RNA induced silencing complex in cells transfected with miR-451a.

HCT116 = assay: Proliferation after radiation and 5-FU treatment; settings: miR-451a mimic vs control mimic, radiation and 5-FU (5 μM), 48 and 96 hours
Experimental: FIG. 6A is a graph of HCT116 transfected with a miR-451a mimic or a control mimic. Proliferation was analyzed 48 hours after radiation and 5-FU (5 μM) treatment. Mean of triplicate wells is plotted. * indicates P<0.01 on a two-tailed Student's T-test.
FIG. 6B is a graph of HCT116 transfected with a miR-451a mimic or a control mimic. Proliferation was analyzed 96 hours after radiation and 5-FU (5 μM) treatment. Mean of triplicate wells is plotted. * indicates P<0.01 on a two-tailed Student's T-test
as §1

Question: With `CCN(C)S(=O)(=O)Nc1ccc(F)c(C(=O)c2c[nH]c3ncc(-c4cnc(C5CC5)nc4)cc23)c1F` [RAF-inhibitor, N′-[3-[[5-(2-cyclopropyl-5-pyrimidinyl)-1H-pyrrolo[2,3-b]pyridin-3-yl]carbonyl]-2,4-difluorophenyl]-N-ethyl-N-methyl-sulfamide] as the molecule, how does the cell proliferation [1] read?
Answer: Its cell proliferation is “significant decrease in cell proliferation”.

Question: How did the cell proliferation [1] turn out when `CC1(N)CCN(c2cnc(-c3cccc(Cl)c3Cl)c(N)n2)CC1` [SHP2-inhibitor, 6-(4-diamino-4-methyl-1-piperidinyl)-3-(2,3-dichlorophenyl)-2-pyrazinamine] was run?
Answer: Its cell proliferation is “significant decrease in cell proliferation”.

Question: What does the source list for “miR-451a: miR-451a-5p mimic purchased from Life Technologies, transfected into HCT-116 cells; tumor suppressor miRNA (AAACCGUUACCAUUACUGAGUU; listed as RNA, chemistry not given here; listed as Homo sapiens)”?
Answer: proliferation in a 2D culture (HCT-116 cells [2]; miR-451a mimic vs control mimic, 48 hours after radiation): decreased proliferation; effect in combination with radiation (HCT-116 cells [2]; on the phenotypes (proliferation, tumorsphere, colony formation), especially at the 5 Gy dose): slight additive effect with radiation; proliferation in a tumorsphere assay (HCT-116 cells [3]): decreased proliferation; surviving fraction colony formation (HCT-116 cells [4]): decreased proliferation; enrichment of target mRNAs at the RNA induced silencing complex [5]: enriched at the RISC; target gene expression at the mRNA level [6]: significant downregulation of all four target genes; responses to 5-FU (proliferation) (HCT116): enhanced the responses to 5-FU
